Measurements taken from patent US8513422B2, “Piperidine derivative” (Astellas Pharma Inc., priority 2007, dated 2013).

Assays:
[1] = target: T1, LNCaP cells expressing human 17βHSD type 5 (Homo sapiens, UniProt P42330); test: Cell growth capability using LNCaP cells expressing human 17βHSD type 5 (CellTiter-Glo); type: cell-based; conditions: androstenedione 10 nM, culturing for 7 days; read-out: LNCaP-17β5 IC50 (cell growth inhibitory activity)
T1 sequence (P42330 1-323): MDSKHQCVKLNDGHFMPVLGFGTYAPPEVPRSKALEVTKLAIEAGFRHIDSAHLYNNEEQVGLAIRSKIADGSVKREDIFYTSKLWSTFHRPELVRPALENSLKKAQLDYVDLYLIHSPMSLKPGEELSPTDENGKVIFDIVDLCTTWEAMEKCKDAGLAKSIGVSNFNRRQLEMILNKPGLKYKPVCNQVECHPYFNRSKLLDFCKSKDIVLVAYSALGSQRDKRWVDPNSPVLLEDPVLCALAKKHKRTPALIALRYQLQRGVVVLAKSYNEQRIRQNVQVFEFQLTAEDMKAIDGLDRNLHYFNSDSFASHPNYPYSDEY
Experimental: LNCaP cells of the human prostate cancer-derived cell line were transformed with a plasmid containing the clone selected in section 1 above and then a cell line showing stable expression was obtained.
9000 cells/well of the transformed cells obtained in section 4 above were seeded in a 96-well plate and cultured overnight. Then, androstenedione, in conjunction with a test compound, was added thereto at a final concentration of 10 nM, followed by culturing for 7 days. After the culturing, number of the cells was counted using a CellTiter-Glo (registered trademark) Luminescent Cell Viability Assay (Promega). The CellTiter-Glo (registered trademark) Luminescent Cell Viability Assay is a reagent that measures the number of the cells by monitoring an intracellular ATP level from the luminescence intensity by luciferase. The experimental manipulation was carried out in accordance with the attached instructions. The cell growth inhibitory activity in the presence of a test compound was calculated as a relative value with respect to the number of the cells in the absence of androstenedione set at proliferation of 0%, and the number of the cells in the presence of androstenedione and in the absence of the test compound set at proliferation of 100%. Then, IC50 values were calculated by the Logistic regression method.

human 17βHSD type 5 = target: T2, human 17βHSD type 5 (Homo sapiens, UniProt P42330); test: Measurement of enzyme activity of human 17βHSD type 5 (testosterone production from androstenedione, DELFIA); type: biochemical; conditions: purified enzyme 10 μg/mL, androstenedione 300 nM, NADPH 200 μM, pH 6.0, room temperature, 2 hours
T2 construct: A full-length cDNA encoding human 17βHSD type 5 used in the pharmacological test of the present invention; made in house; host or cells: Escherichia coli BL21
T2 sequence (P42330 1-323): T1 sequence (P42330 1-323)
Source text: A full-length cDNA encoding human 17βHSD type 5 used in the pharmacological test of the present invention was obtained by the PCR method using a cDNA derived from a human lung cancer-derived cell line, A549 cells as a template. […] Escherichia coli BL21 was transformed with a plasmid containing the cDNA and cultured on a large scale. The proteins were purified by using GSTrapFF column (manufactured by Amersham) and PreScissionProtease (manufactured by Amersham). The purification method was carried out in accordance with the instructions attached to the GSTrapFF column.
The measurement was performed in accordance with the attached instructions. The amount of reduction of testosterone production in the presence of the compound was obtained as a relative value with respect to the amount of testosterone in the absence of the enzyme set at 0% and the amount of testosterone produced in the absence of the compound set at 100%. Then, IC50 values were calculated by the Logistic regression method.

human 17βHSD type 3 = target: T3, human 17βHSD type 3 (Homo sapiens, UniProt P37058); test: Measurement of enzyme activity of human 17βHSD type 3; type: biochemical; conditions: supernatant of transformed 293 cells as enzyme source
T3 construct: A full-length cDNA encoding human 17βHSD type 3 used in the pharmacological test of the present invention; expressed in transfected cells; host or cells: 293 cells (human fetus kidney-derived); supernatant of disrupted cells
T3 sequence (P37058 1-310): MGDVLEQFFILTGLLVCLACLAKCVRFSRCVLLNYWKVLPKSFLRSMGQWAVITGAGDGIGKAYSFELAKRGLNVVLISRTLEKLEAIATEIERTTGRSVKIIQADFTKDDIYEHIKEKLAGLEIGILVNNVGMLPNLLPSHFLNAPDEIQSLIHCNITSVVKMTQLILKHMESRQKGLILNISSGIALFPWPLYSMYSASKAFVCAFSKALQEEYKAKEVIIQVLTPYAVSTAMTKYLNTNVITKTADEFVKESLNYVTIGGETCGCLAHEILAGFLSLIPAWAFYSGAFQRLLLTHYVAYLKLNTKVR
Experimental: A full-length cDNA encoding human 17βHSD type 3 used in the pharmacological test of the present invention was obtained by the PCR method using a cDNA derived from human testis as a template. The nucleotide sequence of the obtained cDNA was analyzed by the dideoxyterminator method, and the clone matched with the known human 17βHSD type 3 sequence (GenBank accession No. BC034281) was selected. Subsequently, human fetus kidney-derived cell line, 293 cells, were transformed with a plasmid containing the cDNA, and the cells were collected 24 hours later. The collected cells were then disrupted in a phosphate buffer solution containing 5% glycerol (500 μL per 100 mm-dish of a phosphate buffer solution (pH 7.4, 200 mM) containing 5% glycerol) and centrifuged (16000 rpm, 5 min, 4° C.), and the supernatant was used as an enzyme source.
Enzyme activity was measured referring to Trevor M. Penning, et al., Biochem. J., 351, 67-77, (2000). Specifically, using a 100 mM potassium phosphate buffer (pH 6.0), (1) the enzyme purified in section 1 above at a final concentration of 10 μg/mL, (2) androstenedione at a final concentration of 300 nM, (3) NADPH at a final concentration of 200 μM, and (4) a test substance, were mixed to react at room temperature for 2 hours, and then the amount of testosterone produced was measured using DELFIA (registered trademark) Testosterone Reagents R050-201 (manufactured by PerkinElmer). The measurement was performed in accordance with the attached instructions. The amount of reduction of testosterone production in the presence of the compound was obtained as a relative value with respect to the amount of testosterone in the absence of the enzyme set at 0% and the amount of testosterone produced in the absence of the compound set at 100%. Then, IC50 values were calculated by the Logistic regression method.

5α-reductase = conditions: patients with BPH, after administration; cited from earlier work

Row | GI50 [1] | melting point | IC50 (human 17βHSD type 5) | IC50 (human 17βHSD type 3) | SMILES | concentration of DHT in the prostate relative to the concentration before the administration (5α-reductase) | increase of concentration of testosterone in the prostate (5α-reductase)
1 | 8.9 nM | 178 to 180 °C | 4.5 nM | > 10000 nM | CC(C)(O)CC1CCN(C(=O)c2cc3cc(Cl)ccc3[nH]2)CC1 [Example 1, 1-{1-[(5-chloro-1H-indol-2-yl)carbonyl]piperidin-4-yl}-2-methylpropan-2-ol] | – | –
2 | 10 nM | 153 to 163 °C | 130 nM | > 10000 nM | CC(C)(O)CC1CCN(C(=O)c2cc3ccccc3[nH]2)CC1 [Example 9, 1-[1-(1H-indol-2-ylcarbonyl)piperidin-4-yl]-2-methylpropan-2-ol] | – | –
3 | 18 nM | 212 to 219 °C | 15 nM | > 10000 nM | CC(C)(O)CC1CCN(C(=O)c2cc3cc(O)ccc3[nH]2)CC1 [Example 15, 2-{[4-(2-hydroxy-2-methylpropyl)piperidin-1-yl]carbonyl}-1H-indol-5-ol] | – | –
4 | 20 nM | 166 to 168 °C | 390 nM | > 10000 nM | Cc1ccc2[nH]c(C(=O)N3CCC(CC(C)(C)O)CC3)c(C)c2c1 [Example 17, 1-{1-[(3,5-dimethyl-1H-indol-2-yl)carbonyl]piperidin-4-yl}-2-methylpropan-2-ol] | – | –
5 | 29 nM | 223 to 225 °C | 15 nM | > 10000 nM | CC(C)(O)CC1CCN(C(=O)c2cc3cc([N+](=O)[O-])ccc3[nH]2)CC1 [Example 20, 2-methyl-1-{1-[(5-nitro-1H-indol-2-yl)carbonyl]piperidin-4-yl}propan-2-ol] | – | –
6 | 60 nM | 163 to 165 °C | 21 nM | > 10000 nM | Cc1ccc2[nH]c(C(=O)N3CCC(CCO)CC3)cc2c1 [Example 22, 2-{1-[(5-methyl-1H-indol-2-yl)carbonyl]piperidin-4-yl}ethanol] | – | –
7 | 24 nM | 149 to 150 °C | 150 nM | > 10000 nM | Cc1ccc2[nH]c(C(=O)N3CCC(CC(C)(C)O)CC3)cc2c1 [Example 24, 2-methyl-1-{1-[(5-methyl-1H-indol-2-yl)carbonyl]piperidin-4-yl}propan-2-ol] | – | –
8 | 12 nM | – | – | > 10000 nM | COc1ccc2[nH]c(C(=O)N3CCC(CC(C)(C)O)CC3)cc2c1 [Example 25, 1-{1-[(5-methoxy-1H-indol-2-yl)carbonyl]piperidin-4-yl}-2-methylpropan-2-ol] | – | –
9 | 31 nM | 163 to 167 °C | 26 nM | > 10000 nM | CC(O)CC1CCN(C(=O)c2cc3ccccc3[nH]2)CC1 (stereo not drawn) [Example 30, 1-[1-(1H-indol-2-ylcarbonyl)piperidin-4-yl]propan-2-ol] | – | –
10 | – | – | – | – | CC(C)(C)NC(=O)[C@H]1CC[C@H]2[C@@H]3CC[C@H]4NC(=O)C=C[C@]4(C)[C@H]3CC[C@]12C [finasteride] | about 20% | 4 fold
